ChEMBL document CHEMBL1151388, “Isolation and Structure of 14,15-Epoxyprieurianin From the South American Tree Guarea guidona” (1982)
Values after ≈ are worked out from the molar mass of the structure shown. Active and inactive are the calls of the source. The rule behind the calls is not given here.

Columns and labels:
P388 [1] = assay: Cytotoxicity against mouse P388 cells; format: functional; conditions: for EC50: read-out: ED50 (the source's name)
P388 [2] = assay: In vivo cytotoxicity against mouse P388 cells up to 8 mg/kg; format: functional, organism-based; design: dose 8 mg/kg

| Structure (SMILES) | EC50 (P388 [1]) | Activity (P388 [1]) | Activity (P388 [2]) |
| --- | --- | --- | --- |
| C=C1[C@H]([C@]2(C)[C@@H](OC(C)=O)CC(=O)O[C@](C)(COC(C)=O)[C@@H]2CC(=O)OC)[C@@H](OC=O)[C@H](OC(=O)[C@H](O)[C@H](C)CC)[C@]2(C)[C@@H](c3ccoc3)C[C@@H]3O[C@]132 | 0.47 µg/mL (≈ 0.629 µM) | – | – |
| CC1(C)C(=O)C=C[C@]2(C)[C@H]3CC[C@@]4(C)[C@H](c5ccoc5)OC(=O)[C@H]5O[C@]54[C@]3(C)C(=O)C[C@@H]12 | – | inactive | – |
| C=C1[C@@H]([C@@]2(C)[C@@H](OC(C)=O)CC(=O)O[C@](C)(COC(C)=O)[C@@H]2C(=O)OC)[C@@H](OC=O)[C@H](OC(=O)[C@H](O)[C@H](C)CC)[C@@]2(C)[C@H](c3ccoc3)CC(=O)[C@]12O [PRIEURIANIN] | 4.4 µg/mL (≈ 5.88 µM) | – | inactive |
